From patent US11865158B2, “Process and composition matter of nanoparticle formulation for systemic treatment of sepsis” (PURDUE RESEARCH FOUNDATION, priority 2019, dated 2024)
Where two headings read alike, the source gives them in different places.

Experiments:
C57BL/6 male mice [1] = assay: In vivo safety; settings: dose exceeding its LD50
Procedure: D-TZP was intraperitoneally (IP) or intravenously (IV) injected to C57BL/6 male mice at doses equivalent to as high as 40 mg/kg PMB and 10 mg/kg PMB, respectively, much greater than the known IP and IV LD50 values of free PMB (20 mg/kg for IP and 5 mg/kg for IV). […] Higher doses have not been tested; therefore, the maximum tolerated dose of D-TZP in each route could not be defined. […] The increased tolerated dose is consistent with the reduced in vitro toxicity of D-TZP.
In vivo safety. 6-10 week-old C57BL/6 male mice were used to evaluate the safety of D-TZP and TZP in comparison with free PMB. The treatment was administered by IP (2.5-40 mg/kg) or IV (3-10 mg/kg) injection. The body weight changes were monitored daily up to 1 week. For blood chemistry and histology analysis, blood and major organs were collected at 12 h post IV injection of vehicle (5% dextrose), free PMB, D-TZP, or TZP (all equivalent to 10 mg/kg PMB). Animals were sacrificed by CO2 asphyxiation. Blood was obtained by cardiac puncture. Major organs were fixed in 10% formalin, embedded in paraffin, sectioned, and stained with hematoxylin and eosin for histological evaluation. The samples were imaged with a Nikon 90i upright microscope. To evaluate the safety of multiple intravenous injections, 5 mg/kg PMB or 10 mg/kg PMB equivalent D-TZP was given every 2 days up to 4 times total with body weight monitoring over 2 weeks.

C57BL/6 male mice [2] = settings: known value, cited from earlier work
J774a.1 macrophages = assay: Cytotoxicity by propidium iodide staining and flow cytometry; type: cell-based; settings: equivalent to 50-150 μg/mL PMB, 24 h
Procedure: As a cationic polypeptide, PMB is known to be effective in neutralizing LPS as early as in 1967, but its systemic application is hampered by dose-limiting nephro- and neurotoxicity. PMB manifests the toxicity via the increased membrane permeability, resulting in increased influx of ions and water and subsequent cell swelling and lysis. To test if the toxicity can be reduced by supplying PMB as a NP-bound form, THP-1 monocytes or J774a.1 macrophages were incubated with D-TZP or free PMB at a concentration equivalent to 50-150 μg/mL PMB for 24 h, stained with propidium iodide (PI), which penetrates damaged cell membrane but not intact membrane, and analyzed with flow cytometry. […] Substantial reduction of membrane damage is attributable to the surface-bound ZWC, which provides a negatively charged cloud beyond the remit of PMB due to the large size, attenuating direct exposure of PMB to cell membrane.
Cytotoxicity of PMB and D-TZP. Cytotoxic concentration range of free PMB was first determined with THP1-XBlue-MD2-CD14 cells by the MTT assay. […] The PI fluorescence of 10,000 cells was measured with the BD Accuri C6 flow cytometer (BD Biosciences, San Jose, CA) via the FL-2 detector. Nanoparticles and cell debris were excluded by gating, but all cell population (dead or alive) was analyzed. […]

[3] = system: Escherichia coli ATCC 2469; assay: Minimum inhibitory concentration, broth microdilution; type: cell-based
Description: (§1) Bacterial cell lines and reagents. Escherichia coli ATCC 2452 (NDM-1, isolated in Pakistan) was New Delhi metallo-beta-lactamase (NDM-1) positive, blaNDM positive by PCR, and carbepenem-resistant (Imipenem and Ertapenem). Escherichia coli ATCC 2469 (1001728, isolated from human urine) was New Delhi metallo-beta-lactamase (NDM-1) positive, blaKPC negative and blaNDM positive by PCR, and Carbepenem-resistant (Imipenem and Ertapenem). Klebsiella pneumoniae (NR-41920, isolated in 2008 from human blood culture in Boston, Massachusetts, USA) was Carbapenem-resistant strain, blaKPC-3 positive by PCR, and resistant to amikacin, ampicillin/sulbactam, cefazolin, cefepime, ceftazidime, ceftriaxone, cefuroxime, ciprofloxacin, gentamicin, meropenem, piperacillin/tazobactam, tobramicin and trimethoprim/sulfamethoxazole. Pseudomonas aeruginosa (NR-50573, isolated in early 1970s from the blood of a burn patient at Mercy Hospital in Pittsburgh, Pennsylvania, USA) was resistant to rifampicin and susceptible to meropenem, ofloxacin, ceftazidime, amikacin, and tobramycin. 0.5 McFarland standard was purchased from ThermoFisher scientific (Waltham, MA, USA). Mueller-Hinton broth and tryptone soy agar plates were purchased from Becton, Dickinson and company (Franklin Lakes, New Jersey, USA).
(§2) Antimicrobial activities The minimum inhibitory concentrations (MICs) of the control antibiotics (gentamicin and imipenem), PMB, D-TZP and TZP against Escherichia coli, Klebsiella pneumoniae and Pseudomonas aeruginosa strains were determined by the broth microdilution method, according to guidelines outlined by the Clinical and Laboratory Standards Institute (CLSI)^18. The bacterial stains were grown aerobically overnight on tryptone soy agar plates at 37° C. Afterwards, a bacterial solution equivalent to 0.5 McFarland standard was prepared and diluted in cation-adjusted Mueller-Hinton broth (CAMHB) to achieve a bacterial concentration of ˜5×10^5 CFU/mL. The treatments were added in the first row of the 96-well plates and serially diluted with media containing bacteria. Plates were incubated aerobically at 37° C. for 16-18 hours.

[4] = system: Escherichia coli ATCC 2452; assay: as above; type: cell-based
Description: as §1, §2

[5] = system: Pseudomonas aeruginosa NR-50573; assay: as above; type: cell-based
Description: as §1, §2

[6] = system: Klebsiella pneumoniae NR-41920; assay: as above; type: cell-based
Description: as §1, §2

polymyxin B [PMB]
mortality (C57BL/6 male mice [1]): resulted in mortality | LD50 (C57BL/6 male mice [2]; IP): 20 mg/kg | LD50 (C57BL/6 male mice [2]; IV): 5 mg/kg | PI fluorescence (membrane damage) (J774a.1 macrophages): dose-dependent PI fluorescence signal | Minimum inhibitory concentration (MIC) [3]: 0.125 µg/mL | Minimum inhibitory concentration (MIC) [4]: 0.5 µg/mL | Minimum inhibitory concentration (MIC) [5]: 0.5 µg/mL | Minimum inhibitory concentration (MIC) [6]: 0.5 µg/mL
